Legend:
[1] = tested on: hIgG; experiment: ELISA of soluble fractions of native and mutated WW domains against hIgG; assay type: binding; conditions: human IgG, soluble fraction, E6 detected with anti-HA-HRP, E6_M2 and Rosetta extract with anti-His-HRP, ABTS
Procedure: The soluble fraction of 100 mL cultures (100 μL) was used for ELISA against hIgG, as described in ([Dias et al., 2025]). Briefly, the target hIgG was immobilized (1 μg/well) in 0.1 M Sodium Bicarbonate pH 8.6 in Immuno Maxisorp ELISA plates (Thermo Fisher), overnight at 4 °C. In the next day, the unbound hIgG was removed, and the wells washed with PBS1x. To the wells was added the blocking solution – 5% (v/v) Soya Milk in PBS 1x and incubated for 1 h at room temperature. The wells were washed and incubated with 100 µL of soluble fraction (∼0.065 mg/mL total protein) at room temperature for 2 h.
The unbound WW domains were removed, and the wells were washed using 4 times PBS1x-0.05% Tween 20 and 1 time with PBS1x. For detection was used 1:1,000 anti-His-HRP conjugated antibody (MA1-21315-HRP, Invitrogen) in 1% (v/v) Soya Milk in PBS1x and incubated for 1 h at RT, after that the wells were washed with 5x PBS1x. The detection occurred with ABTS (2,2′-azino-bis(3-ethylbenzothiazoline-6-sulfonic acid) ready solution (11684302001, Roche), which was incubated in the dark for 1 h at 37 °C. Finally, the results were analysed in a microplate reader (Tecan) with appropriate filter at Abs405nm.
Figure S6 – Production and signal characterization of mutated versions. A – Tris-Tricine gels after cell lysis of the WW prototype sequence (WWp, band at ~8KDa), mutated WWp5_4 scaffold (WWp5_4_M2, band at ~8 kDa) and mutated E6 (E6_M2, band at ~ 12kDa). Samples were normalized 90µg total protein/lane. M - Precision Plus Protein™ Dual Xtra Prestained, Biorad; SF – soluble fraction; ISF – insoluble fraction. B1, B2, and B3 indicate production batchs in 1L culture, except for WWp B1 – 100 mL, WWp_5_4 B2 – 900 mL. Stained with Simplyblue. […] The detection of the clones was made with anti-His conjugated antibody with HRP and detected with ABTS as substrate.
Figure S7 – Comparison between ELISA signal of E6 versus E6_M2. […] The expression levels were detected by direct coating of the microplate well with the soluble fraction of the extract. […] All were detected with ABTS as substrate.

[2] = Solubility / precipitation observed during production, dialysis and purification; assay type: physicochemical; conditions: lead ligand sequences from WWp5_4 naïve library
Procedure: Therefore, after expression the soluble fractions were further centrifuged at 42,000 g for 20 min at 4 °C. As the samples were diluted (∼5 mg/mL in 25 mL lysis buffer), the soluble fractions were lyophilized and resuspended in 4 mL of water. The samples were dialyzed (Membranes Spectra Pre-Treated 1 kDa, Carl Roth) to Binding buffer without imidazole (20 mM Sodium Phosphate, 500 mM Sodium Chloride pH 7.4) for 24 h at 16 °C. The samples were quantified by […] (typically ∼6 mg/mL), this solution was diluted 1:2 in Binding buffer (20 mM Sodium Phosphate, 500 mM Sodium Chloride, 20 mM imidazole pH 7.4) and purified in a gravitational flow with 6 mL of resin (IMAC Sepharose 6 Fast Flow (Ni^2+), Cytiva) packed in a PD-10 column. The column was prepared using the indications of the manufacturer. The binding of the protein to the column was maximized by an incubation for 1 h at room temperature in agitation at 40rpm. The resin was washed 4 x column volumes (CV) with binding buffer. The elution as achieved by incubation for 15min with elution buffers. We used a gradient with 3 x CV elution buffer 1 (binding buffer with 100 mM imidazole) and 3 x CV elution buffer 2 (binding buffer with 200 mM imidazole).
The most enriched elutions in WW domains (60%–70% purity) were combined and dialysed against PBS1x (10 mM Na2HPO4, 1.8 mM KH2PO4, 2.7 mM KCl, 137 mM NaCl pH 7.4) with routine changes of buffer up to 48 h at 16 °C. Following the samples were concentrated with a Amicon-Ultra15 3 kDa MWCO (Millipore) with centrifugation conditions 4,900 g, 30 min, 4 °C. The final samples were quantified by BCA assay.
Size Exclusion Chromatography (SEC). The samples were further purified by SEC to achieve 90% purity in a AKTA system (Cytiva). The column Superdex 75 Increase 10/300 GL (29148721, Cytiva) was washed with water and equilibrated 2CV in PBS1x, as described by the manufacturer. As calibrants we prepare a mixture: 2 mg/mL of Bovine Serum Albumin (66 kDa, BP9702-100, FisherScientific), Ovalbumin (42 kDa, A5503-1G, Sigma), Chicken Lysozyme ([…], 62,971–10G-F, Fluka) and hPin1_WW chemically synthesized (5 kDa, produced in ([Dias et al., 2015])) in PBS 1x, this sample was filtered with 0.2 µm PES (514–0073, VWR) and analysed. The operation conditions: flow 0.5 mL/min, 0.05 CV in PBS1x and injection of 250 µL and run for 2 CV with PBS 1x at 16 °C. The same method was used for the WW domain samples. After purifications samples were quantified for total protein by BCA assay, as described previously and used for characterization.

SMGLPPGWDEYKT RRFKL GKTYYYNH HILS KTSTWTDPRMSS [Clone E6]
binding signal relative to negative control (E. coli Rosetta extract) [1]: 1.5 times
solubility observed in production and purification [2]: limited solubility
